# Measured values published in patent US10442791B2, “DNA-PK inhibitors” (Vertex Pharmaceuticals Incorporated, priority 2012, dated 2019).
# How the values were obtained:
# [1] = system: MCF7; test: Cell viability following irradiation (CellTiter-Glo), MCF7; format: cell-based; details: MCF7 (Breast Cancer), viability at 6 days
# Description: (§1) To evaluate the radiosensitizing effects of compounds of the invention in combination with ionizing radiation (IR), a broad panel of cell lines across multiple tumor types and genetic backgrounds were tested. Cells were incubated with DMSO or compound 578 for 30 minutes and then exposed to various doses of radiation (0, 0.5, 1, 2, 4, 6, 8, and 16 Gy). Cell viability was assessed at 6 days using CellTiter-Glo® (Promega, Inc).
# [2] = system: PATU8889T; test: Cell viability following irradiation (CellTiter-Glo), PATU8889T; format: cell-based; details: PATU8889T (Pancreatic cancer), viability at 6 days
# Description: as §1
# [3] = system: DNA-PK null SCID mouse cell line; test: Cell viability following irradiation (CellTiter-Glo), SCID; format: cell-based; details: for EC50 IR: SCID (SCID Tumor, DNA-PK null), viability at 6 days
# Description: as §1
# [4] = system: H1299; test: Cell viability following irradiation (CellTiter-Glo), H1299; format: cell-based; details: H1299 (Lung Cancer), viability at 6 days
# Description: as §1
# [5] = system: SK-MEL-5; test: Cell viability following irradiation (CellTiter-Glo), SK-MEL-5; format: cell-based; details: SK-MEL-5 (Melanoma), viability at 6 days
# Description: as §1
# [6] = system: H2009; test: Cell viability following irradiation (CellTiter-Glo), H2009; format: cell-based; details: H2009 (Lung Cancer), viability at 6 days
# Description: as §1
# [7] = system: PC3; test: Cell viability following irradiation (CellTiter-Glo), PC3; format: cell-based; details: PC3 (Prostate Cancer), viability at 6 days
# Description: as §1
# [8] = system: HT1080; test: Cell viability following irradiation (CellTiter-Glo), HT1080; format: cell-based; details: HT1080 (Fibrosarcoma), viability at 6 days
# Description: as §1
# [9] = system: H460; test: Cell viability following irradiation (CellTiter-Glo), H460; format: cell-based; details: H460 (Lung Cancer), viability at 6 days
# Description: as §1
# [10] = system: FaDu; test: Cell viability following irradiation (CellTiter-Glo), FaDu; format: cell-based; details: FaDu (Head and Neck Squamous Cell Carcinoma), viability at 6 days
# Description: as §1
# [11] = system: A172; test: Cell viability following irradiation (CellTiter-Glo), A172; format: cell-based; details: A172 (Glioblastoma), viability at 6 days
# Description: as §1
# [12] = system: human fibroblast cell lines (HFL1, IMR90 and MRC5), ARPE19, NHBE, SAEC; test: Cell viability following irradiation, normal cell lines; format: cell-based; details: exception: HS68
# Description: as §1
# [13] = system: DU4475; test: Cell viability following irradiation (CellTiter-Glo), DU4475; format: cell-based; details: DU4475 (Breast Cancer), viability at 6 days
# Description: as §1
# [14] = system: SMCC7721; test: Cell viability following irradiation (CellTiter-Glo), SMCC7721; format: cell-based; details: SMCC7721 (Hepatocellular Carcinoma), viability at 6 days
# Description: as §1
# [15] = system: Huh7; test: Cell viability following irradiation (CellTiter-Glo), Huh7; format: cell-based; details: Huh7 (Hepatocellular Carcinoma), viability at 6 days
# Description: as §1
# [16] = system: DLD-1; test: Cell viability following irradiation (CellTiter-Glo), DLD-1; format: cell-based; details: DLD-1 (Colorectal Cancer), viability at 6 days
# Description: as §1
# [17] = system: U87MG; test: Cell viability following irradiation (CellTiter-Glo), U87MG; format: cell-based; details: U87MG (Glioblastoma), viability at 6 days
# Description: as §1
# [18] = system: A549; test: Cell viability following irradiation (CellTiter-Glo), A549; format: cell-based; details: A549 (Lung Cancer), viability at 6 days
# Description: as §1
# [19] = system: H838; test: Cell viability following irradiation (CellTiter-Glo), H838; format: cell-based; details: H838 (Lung Cancer), viability at 6 days
# Description: as §1
# [20] = system: OD26749 NSCLC subcutaneous xenograft; test: In vivo efficacy, primary OD26749 NSCLC subcutaneous xenograft model with whole body IR; design: species or system Nude mice; details: Days 19 and 26, Day 30 post implantation
# Description: The efficacy of compound 578 in vivo was evaluated in the primary OD26749 NSCLC subcutaneous xenograft model. This primary NSCLC tumor was obtained from a patient with a poorly differentiated adenocarcinoma and was serially passaged in SCID mice prior to this study. Nude mice were surgically implanted with 150-mg fragments of OD26749 tumor at passage 3 (P3). Whole body ionizing radiation (IR, 2 Gy/treatment) was administered using a dual Cesium 137 source and initiated when tumors reached approximately 350 mm^3. Tumor volumes were measured twice a week during the course of the study. Anti-tumor efficacy is expressed as % T/C (tumor/control) while regression is expressed as % T/Ti, the reduction in tumor volume compared to the starting tumor volume.
# Compound 578 [in 16% Captisol®+HPMC/PVP] was administered orally (b.i.d. at 0 and 4 hours) at 25, 50, 100 mg/kg and (q.d.) 200 mg/kg on Day 19 post implantation. A single 2-Gy dose of whole body IR was given 15 minutes after compound administration. Control animals were given vehicle orally b.i.d. (0 and 4 hours). On Day 26 post implantation, the same regimens were repeated.
# [21] = system: Colo-205; test: Cell viability following irradiation (CellTiter-Glo), Colo-205; format: cell-based; details: Colo-205 (Colorectal Cancer), viability at 6 days
# Description: as §1
# [22] = system: LS411N; test: Cell viability following irradiation (CellTiter-Glo), LS411N; format: cell-based; details: LS411N (Colorectal Cancer), viability at 6 days
# Description: as §1
structure (smiles),measurement,setting,value
"CNC(=O)c1ccnc2c([C@H](C)CNc3cc(-c4cnc(C)nc4)ncn3)cccc12 [Compound 578, (S)—N-methyl-8-(1-((2′-methyl-[4,5′-bipyrimidin]-6-yl)amino)propan-2-yl)quinoline-4-carboxamide]",EC50 IR,[1]; compound 578 0.7 μM + IR,4.9 Gy
same,EC50 IR,[1]; compound 578 2.1 μM + IR,3.3 Gy
same,EC50 IR,[2]; compound 578 0.7 μM + IR,1.1 Gy
same,EC50 IR,[2]; compound 578 2.1 μM + IR,0.9 Gy
same,EC50 IR,[3]; compound 578 0.7 μM + IR,2.8 Gy
same,EC50 IR,[3]; compound 578 2.1 μM + IR,3.1 Gy
same,effect on cell viability,"[3]; as a single agent or in combination with radiation, DNA-PK null SCID mouse cell line",minimal effect on cell viability
same,EC50 IR,[4]; compound 578 0.7 μM + IR,1.1 Gy
same,EC50 IR,[4]; compound 578 2.1 μM + IR,1.5 Gy
same,EC50 IR,[5]; compound 578 0.7 μM + IR,2.7 Gy
same,EC50 IR,[5]; compound 578 2.1 μM + IR,2.3 Gy
same,EC50 IR,[6]; compound 578 0.7 μM + IR,2.7 Gy
same,EC50 IR,[6]; compound 578 2.1 μM + IR,1.5 Gy
same,EC50 IR,[7]; compound 578 0.7 μM + IR,0.5 Gy
same,EC50 IR,[7]; compound 578 2.1 μM + IR,<0.5 Gy
same,EC50 IR,[8]; compound 578 0.7 μM + IR,1.9 Gy
same,EC50 IR,[8]; compound 578 2.1 μM + IR,0.9 Gy
same,EC50 IR,[9]; compound 578 0.7 μM + IR,0.9 Gy
same,EC50 IR,[9]; compound 578 2.1 μM + IR,0.7 Gy
same,EC50 IR,[10]; compound 578 0.7 μM + IR,2 Gy
same,EC50 IR,[10]; compound 578 2.1 μM + IR,1.9 Gy
same,EC50 IR,[11]; compound 578 0.7 μM + IR,1.7 Gy
same,EC50 IR,[11]; compound 578 2.1 μM + IR,0.9 Gy
same,radiosensitization,[12],only marginal radiosensitization
same,EC50 IR,[13]; compound 578 0.7 μM + IR,<0.5 Gy
same,EC50 IR,[13]; compound 578 2.1 μM + IR,<0.5 Gy
same,EC50 IR,[14]; compound 578 0.7 μM + IR,1.7 Gy
same,EC50 IR,[14]; compound 578 2.1 μM + IR,0.6 Gy
same,EC50 IR,[15]; compound 578 0.7 μM + IR,1.3 Gy
same,EC50 IR,[15]; compound 578 2.1 μM + IR,0.8 Gy
same,EC50 IR,[16]; compound 578 0.7 μM + IR,0.6 Gy
same,EC50 IR,[16]; compound 578 2.1 μM + IR,0.7 Gy
same,EC50 IR,[17]; compound 578 0.7 μM + IR,>16 Gy
same,EC50 IR,[17]; compound 578 2.1 μM + IR,>16 Gy
same,EC50 IR,[18]; compound 578 0.7 μM + IR,0.5 Gy
same,EC50 IR,[18]; compound 578 2.1 μM + IR,<0.5 Gy
same,EC50 IR,[19]; compound 578 0.7 μM + IR,0.6 Gy
same,EC50 IR,[19]; compound 578 2.1 μM + IR,<0.5 Gy
same,% T/C (tumor growth inhibition),[20]; 25 mg/kg b.i.d. oral + 2 Gy whole body IR,25.6%
same,% T/C (tumor growth inhibition),[20]; 50 mg/kg b.i.d. oral + 2 Gy whole body IR,11.7%
same,% T/Ti (regression),"[20]; 100 mg/kg b.i.d. oral + 2 Gy whole body IR, P<0.001 compared to IR alone",−3.1%
same,% T/C (tumor growth inhibition),[20]; 200 mg/kg q.d. oral + 2 Gy whole body IR,6.5%
same,EC50 IR,[21]; compound 578 0.7 μM + IR,0.7 Gy
same,EC50 IR,[21]; compound 578 2.1 μM + IR,0.7 Gy
same,EC50 IR,[22]; compound 578 0.7 μM + IR,2.3 Gy
same,EC50 IR,[22]; compound 578 2.1 μM + IR,1.9 Gy
